From US20070066608A1, “Novel indole derivatives with an improved antipsychotic activity” (priority 2003, published 2007)

Key:
[1] = biological target: T1, Human Dopamine D3 receptor (Homo sapiens, UniProt P35462); assay: Radioligand binding experiment for dopamine D3 receptor (hD3), [125I]Iodosulpride; details: membranes of D3 receptor-transfected CHO cells, read-out: pIC50 D3 (converted)
T1 construct: expressed in transfected cells; host or cells: CHO cells
Protocol: (§1) The interaction of the compounds of Formula (I) with dopamine-receptors, h5HT-transporter and h5HT1A receptor was assessed in in vitro radioligand binding experiments. In general, a low concentration of a radioligand with a high binding affinity for a particular receptor or transporter is incubated with a sample of a tissue preparation enriched in a particular receptor or transporter or with a preparation of cells expressing cloned human receptors in a buffered medium. During the incubation, the radioligand binds to the receptor or transporter. When equilibrium of binding is reached, the receptor bound radioactivity is separated from the non-bound radioactivity, and the receptor- or transporter-bound activity is counted The interaction of the test compounds with the receptor is assessed in competition binding experiments. Various concentrations of the test compound are added to the incubation mixture containing the receptor- or transporter preparation and the radioligand. The test compound in proportion to its binding affinity and its concentration inhibits binding of the radioligand.
Human Dopamine D3 receptor-transfected CHO cells were collected by scraping into ice-cold Tris-HCl buffer (50 mM, pH 7.4). The suspension was centrifuged (23 500×g, 10 min, 4° C.) and pellets stored at −70° C. until required. They were then thawed and briefly homogenised using an Ultra-Turrax T25 homogeniser prior to dilution to an appropriate protein concentration optimised for specific and non-specific binding. [^125]Iodosulpride (Amersham, specific activity 2000 Ci/mmol) was diluted in Tris-HCl assay buffer containing NaCl, CaCl2, MgCl2, KCl and BSA (50, 120, 2, 1, 5 mM, 0.1% respectively, adjusted to pH 7.7 with HCl) at a concentration of 2 nmol/L. Prepared radioligand (20 μl) was incubated (60 min, RT) and with 20 μl of either the 10% DMSO control, Risperidone (10^−6 mol/L final concentration), or compound of interest, then with membrane preparations (80 μl). Overnight incubation followed after addition of WGA-coated PVT SPA beads (250 μl; Amersham) and membrane-bound counts measured in a Wallac Microbeta. % Specific bound and competition binding curves were calculated using S-Plus software (Insightful).

[2] = biological target: T2, Human Dopamine D4 receptor (Homo sapiens, UniProt P21917); assay: Radioligand binding experiment for dopamine D4 receptor (hD4), [125I]Spiperone; details: membranes of D4 receptor-transfected Sf9 cells, read-out: pIC50 D4 (converted)
T2 construct: expressed in transfected cells; host or cells: Sf9 cells
T2 sequence (P21917 1-419): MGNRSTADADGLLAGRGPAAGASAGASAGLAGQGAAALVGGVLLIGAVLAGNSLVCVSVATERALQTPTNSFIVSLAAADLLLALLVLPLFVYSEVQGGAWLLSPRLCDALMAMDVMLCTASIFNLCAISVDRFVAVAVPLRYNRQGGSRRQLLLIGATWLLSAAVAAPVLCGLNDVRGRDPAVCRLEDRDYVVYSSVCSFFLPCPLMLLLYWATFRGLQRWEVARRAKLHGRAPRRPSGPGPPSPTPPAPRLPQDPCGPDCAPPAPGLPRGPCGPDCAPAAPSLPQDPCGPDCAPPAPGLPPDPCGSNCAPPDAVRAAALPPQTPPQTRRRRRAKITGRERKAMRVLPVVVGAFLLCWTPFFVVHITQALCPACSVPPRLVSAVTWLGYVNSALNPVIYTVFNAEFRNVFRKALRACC
Protocol: as §1, with “The test compound in proportion to its binding affinity and its concentration inhibits binding of the radioligand.” left out
Human Dopamine D4 receptor-transfected Sf9 cells were collected by scraping into ice-cold Tris-HCl buffer (50 mM, pH 7.4). […] Filters were allowed to dry before adding scintillation fluid and counting in a Topcount scintillation counter. % Specific bound and competition binding curves were calculated using S-Plus software (Insightful).

T1 sequence (P35462 whole entry): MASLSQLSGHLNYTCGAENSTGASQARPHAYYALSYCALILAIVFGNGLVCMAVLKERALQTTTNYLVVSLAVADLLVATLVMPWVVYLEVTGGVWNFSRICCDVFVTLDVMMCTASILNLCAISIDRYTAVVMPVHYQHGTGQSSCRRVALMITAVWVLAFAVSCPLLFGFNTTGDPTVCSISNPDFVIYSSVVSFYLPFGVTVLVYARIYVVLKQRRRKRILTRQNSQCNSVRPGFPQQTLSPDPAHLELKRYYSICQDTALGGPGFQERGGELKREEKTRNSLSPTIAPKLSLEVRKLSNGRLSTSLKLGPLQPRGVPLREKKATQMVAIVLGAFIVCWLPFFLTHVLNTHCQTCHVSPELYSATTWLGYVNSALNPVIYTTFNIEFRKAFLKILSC

Fc1ccc2[nH]cc(C3=CCN(CC4Oc5cccnc5O4)CC3)c2c1 (centres unmarked) [Compound 7]
IC50 [1]: 15.8 nM | IC50 [2]: 501 nM
